Among the data in patent US11780843B2, “Compounds active towards nuclear receptors” (NUEVOLUTION A/S, priority 2020, dated 2023) are IC50 values, retold here.

Assay [1] has as its target T1, RORγ ligand-binding domain (Homo sapiens, UniProt P51449).
T1 construct: Gal4 (galactose-responsive transcription factor); expressed in transfected cells; host or cells: HEK293, transient co-transfection
T1 sequence (P51449 269-508 limits assumed): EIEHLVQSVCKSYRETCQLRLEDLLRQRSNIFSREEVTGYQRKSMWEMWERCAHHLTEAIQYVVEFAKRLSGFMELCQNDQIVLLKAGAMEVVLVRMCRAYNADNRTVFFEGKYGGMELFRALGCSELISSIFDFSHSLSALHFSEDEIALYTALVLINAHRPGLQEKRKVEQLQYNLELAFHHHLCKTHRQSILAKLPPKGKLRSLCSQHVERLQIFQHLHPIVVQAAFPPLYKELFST
The assay is described as follows: RORγ Reporter Assay (Gal4). Conditions: HEK293 cells, luciferase reporter, 24 h incubation, absolute IC50; read-out: IC50. It is filed as cell-based. As to the method:
The HEK293 cell line is co-transfected transiently with two plasmids, one with the RORγ ligand-binding domain fused to galactose-responsive transcription factor (Ga14), and the other with the luciferase reporter gene and Gal binding sites (UAS). This construction allows to determine the RORT activity in a cellular system through the measurement of luminescence.
A suspension of RORγ reporter cells was dispensed into plates and cultured 2 h at 37° C. and 5% CO2. Media formulation consisted in DMEM/F-12 medium (Gibco) supplemented with 10% heat inactivated FBS (Sigma-Aldrich), non-essential aminoacids (Sigma-Aldrich), 2 mM Glutamax (Gibco) and 100 U/mL penicillin (Sigma-Aldrich). Dose-response curves with compounds were prepared in 100% DMSO and further diluted 100-fold in culture medium. Compound solutions were added to the plate containing cells (final DMSO concentration of 0.1%) and incubated for 24 h at 37° C. and 5% CO2. Luciferase detection reagent was added to each well, and relative light units (RLUs) were quantified from each assay well using a plate reading luminometer.
Values of average RLU±S.D. were computed for all treatment sets, followed by the calculations of percent-reduction of RORT activity in response to respective test compound. The following formula was used: activity=100*[1−[[…]] where the theoretical minimum reduction (0% reduction). […] These calculations were performed in excel-fit software using X-204 model curve.
(In general: In a reporter assay the amount or activity of a reporter protein is the signal.)

Assay [2] concerns IL-17A secretion in activated PBMCs. Briefly: IL-17A secretion in activated PBMCs. Format: cell-based. To be noted: Homo sapiens, PBMC, 48 h, human PBMCs stimulated with CD3/CD28 Dynabeads for 48 h, absolute IC50. The source says: Heparin-treated whole blood from healthy human volunteers was supplied from Hospital de Sant Pau (Barcelona) under the approval of the local ethical review board for human studies (Hospital de Sant Pau, Barcelona, Spain). Human peripheral blood mononuclear cells (PBMCs) were isolated from healthy human volunteers by density gradient centrifugation using the Ficoll-Paque (GE Healthcare). PBMCs were suspended in cell culture medium which consisted on RPMI 1640 medium (Sigma-Aldrich) containing 10% heat inactivated fetal bovine serum (Sigma-Aldrich), 2 mM L-Glutamine (Gibco), 20 mM Hepes (Gibco) and 100 U/mL penicillin (Sigma-Aldrich). Cells were seeded in 384-well plate (DiscoverX), at 40,000 cells per well and cultured 2 h at 37° C. and 5% CO2.
Dose-response curves with compounds were prepared using a 5-fold serial dilution (10 concentrations) in 100% DMSO and further diluted 100-fold in culture medium. Compound solutions (5 μL) were added to the plate containing cells (final DMSO concentration of 0.1%) and incubated for 30 min. Then, cells were stimulated with CD3/CD28 Dynabeads (ThermoFisher, at a bead-to-cell ratio of 1:1) for 48 h at 37° C. and 5% CO2.
IL-17A levels in supernatant were determined by immunoassay using hIL17A QBeads (Intellicyt) and by fluorescence analysis in iQue flow cytometer following the manufacturer's instructions. Inhibition of IL-17A secretion was calculated using the following formula: inhibition=100*[1−[(x−mean basal condition)/(mean top condition—mean basal condition)]]. Activated DMSO-treated cells were used as top condition and activated GNE09461 (10 μM)-treated cells as basal condition.

Molecules are shown by their SMILES. pIC50: −log10 of the molar value.

As for `NC(=O)CN1CCC(O)(Cn2ccc3c(N(Cc4ccc(C(F)(F)F)cc4)C4CC4)ncnc32)CC1` [Example 3P6-2, 2-(4-((4-(cyclopropyl(4-(trifluoromethyl)benzyl)amino)-7H-pyrrolo-[2,3-d]pyrimidin-7-yl)methyl)-4-hydroxypiperidin-1-yl)acetamide], the pIC50 in assay [1] was 8.38; in assay [2], 8.66.
For `CCN(Cc1ccc(-n2cccn2)cc1)c1ncnc2c1ccn2C[C@@H]1CCN(CC(N)=O)C[C@H]1O` (relative stereo) [P6-30″, rel-2-((3R,4R)-4-((4-((4-(1H-pyrazol-1-yl)benzyl)(ethyl)amino)-7H-pyrrolo[2,3-d]pyrimidin-7-yl)methyl)-3-hydroxypiperidin-1-yl)acetamide], the pIC50 in assay [1] is 8.19; in assay [2], 7.00.
For `NC(=O)CN1CC[C@](O)(Cn2ccc3c(N(Cc4ccc(-n5cccn5)cc4F)C4CC4)ncnc32)[C@@H](O)C1` (relative stereo) [R5-4″, rel-2-((3R,4R)-4-((4-(cyclopropyl(2-fluoro-4-(1H-pyrazol-1-yl)benzyl)amino)-7H-pyrrolo[2,3-d]pyrimidin-7-yl)methyl)-3,4-dihydroxypiperidin-1-yl)acetamide], in that order: 8.37 and 7.66.
For `CCN(Cc1ccc(C(F)(F)F)cn1)c1ncnc2c1c(F)cn2C[C@@H]1CCN(CC(N)=O)C[C@H]1O` (relative stereo) [P6-28″, rel-2-((3R,4R)-4-((4-(ethyl((5-(trifluoromethyl)pyridin-2-yl)methyl)amino)-5-fluoro-7H-pyrrolo[2,3-d]pyrimidin-7-yl)methyl)-3-hydroxypiperidin-1-yl)acetamide], in that order: 8.07 and 7.28.
Taken in the same sequence, the figures for `CCN(Cc1ccc(-n2cccn2)cc1)c1ncnc2c1ccn2C[C@@]1(O)CCN(CC(N)=O)C[C@@H]1O` (relative stereo) [R5-1″, rel-2-((3R,4R)-4-((4-((4-(1H-pyrazol-1-yl)benzyl)(ethyl)amino)-7H-pyrrolo[2,3-d]pyrimidin-7-yl)methyl)-3,4-dihydroxypiperidin-1-yl)acetamide] were 7.89 and 7.10.
On to `CCN(Cc1ccc(C(F)(F)F)cc1)c1ncnc2c1ccn2C[C@@]1(O)CCN(CC(N)=O)C[C@@H]1O` (single isomer, unassigned) [Example L5-2-1-2], for which the pIC50 in assay [1] was 8.70; in assay [2], 8.51.
For `NC(=O)CN1CCC(O)(Cn2cc(F)c3c(N(Cc4ccc(C(F)(F)F)cc4)C4CC4)ncnc32)CC1` [Example 3P6-1, 2-(4-((4-(Cyclopropyl(4-(trifluoromethyl)benzyl)amino)-5-fluoro-7H-pyrrolo[2,3-d]pyrimidin-7-yl)methyl)-4-hydroxypiperidin-1-yl)acetamide], in that order: 8.16 and 7.68.
With `N#CC1(Cn2cc(F)c3c(N(Cc4ccc(C(F)(F)F)cc4)C4CC4)ncnc32)CCN(CC(N)=O)CC1` [Example P6-11, 2-(4-cyano-4-((4-(cyclopropyl(4-(trifluoromethyl)benzyl)amino)-5-fluoro-7H-pyrrolo[2,3-d]pyrimidin-7-yl)methyl)piperidin-1-yl)acetamide], the pIC50 in assay [1] was 7.80; in assay [2], 7.64.
Taken in the same sequence, the figures for `CCN(Cc1ccc(C(F)(F)F)cn1)c1ncnc2c1ccn2C[C@@H]1CCN(CC(N)=O)C[C@H]1O` (relative stereo) [P6-27″, rel-2-((3R,4R)-4-((4-(ethyl((5-(trifluoromethyl)pyridin-2-yl)methyl)amino)-7H-pyrrolo[2,3-d]pyrimidin-7-yl)methyl)-3-hydroxypiperidin-1-yl)acetamide] were 7.92 and 7.15.

Usually pIC50 stands for the negative decadic logarithm of the IC50, by convention in mol/L.
